From patent publication US20230193181A1, “3D Tissue Printing” (Oxford University Innovation Limited, priority 2020, published 2023)
Entries after “also recorded” stand apart in the source; their conditions may differ.

How the values were obtained:
[1] = reported in clinic; cited from earlier work
[2] = tested on: printed neural tissue arrays (astrocytes and RFP-NPCs in Matrigel); assay: Neurotoxicity test using printed neural tissue arrays
Description: FIG. 20a, The experimental process of drug testing using printed neural tissue arrays. From left to right: 2D cultured astrocytes and RFP-NPCs were harvested and added to Matrigel for the preparation of bio-ink with a cell density ratio of 3:1 (astrocytes vs RFP-NPCs) and total cell density of 4×10^7 mL^−1. The prepared bio-ink were printed into droplet arrays with individual droplet size around 100 μm. On the next day, cancer chemotherapy drugs were added to the culture medium. The neurotoxicity of the drugs were assessed after a further 24 hrs. FIG. 20b, Fluorescent images of neural tissues treated with DMSO (control) and cancer chemotherapy drugs with different reported neurotoxicity risks: 5-Fluorouracil (minor), Carboplatin (moderate), Taxol (high). […] FIG. 20c, Comparison of the neurotoxicity of different chemotherapy drugs.
Neurotoxicity of cancer chemotherapy drugs occurs frequently in clinic and often limit the dose of chemotherapy. We tested three chemotherapy drugs that are reported in clinic with low, moderate and high risks of neurotoxicity, using printed droplet arrays containing neural tissues (astrocytes and NSCs in Matrigel).

RFP-hNSCs = assay: Toxicity test of DPhPC on hNSCs; format: cell-based, human; conditions: DPhPC at 100 μg/mL or 400 μg/mL in neural maintenance medium; three days of culture
Description: RFP-hNSCs were cultured in neural maintenance medium containing no lipid (control) or DPhPC at either 100 μg/mL or 400 μg/mL. Arrows indicate the formation of neural rosette-like structures under all conditions after three days of culture.

[3] = tested on: Astrocytes in droplet arrays; assay: Fluo-4 calcium live imaging of astrocytes in droplet arrays after KCl stimulation; format: cell-based, human; conditions: KCl 60 mM
Description: FIG. 19a, human primary cortical astrocyte printed in an array. Astrocytes were printed at a cell density of 4×10^7 mL^−1 in Matrigel. Left: Calcein AM (CAM) staining of printed astrocytes at 2 days post printing. The dashed box indicates the area of the higher magnification image on the right (top two images in the middle). Top right row: higher magnification images of astrocyte printed in Matrigel (CAM staining image and the corresponding brightfield image) and image of astrocytes (brightfield with CAM staining) printed in agarose as the matrix. Bottom right row: immunostaining images of printed astrocytes with astrocyte markers vimentin (yellow) and GFAP (magenta). FIG. 19b, Spontaneous calcium fluctuations of astrocytes in printed droplet arrays. Left: Individual time-point frames of Fluo-4 calcium live imaging. Right: single-cell traces of the cells indicated by the colour-coded circles in the images (left panel). […] Proportions of astrocytes with spontaneous calcium fluctuations were measured at four conditions: 2D monolayer cell culture, and printed astrocyte, astrocyte-NPC, and astrocyte-MDA (a metastatic breast cancer cell line) droplet arrays. n>20 for all four conditions. *: P<0.05, **: P<0.01, ***: P<0.001 and ****: P<0.0001. […]

printed neural tissues = assay: Fluo-4 calcium imaging of printed neural tissues after KCl stimulation; format: cell-based, human; conditions: KCl 60 mM, 65 days ppd
Description: FIG. 3d-f show spontaneous calcium oscillations (FIG. 3d), single-cell traces (FIG. 3e) and correlation coefficient analysis (FIG. 3f) of printed neural tissues at 44 days ppd. The data reveal increased neural communication after a longer period of differentiation. […] Intensities are false-coloured according to the ‘fire’ Look Up Table of Fiji. […] Images are false-coloured as in FIG. 3g. Scale bars are all 100 μm.
Calcium imaging and correlation analysis. A Fluo-4 Direct™ calcium assay kit (F10471, Invitrogen) was used according to the manufacturer's instructions to measure calcium activities. Briefly, printed neural tissues were transferred to 48-well plates and incubated with NMM/Fluo-4 calcium imaging reagents (v:v, 1:1) for 1 h at 37° C. Both spontaneous and evoked calcium recordings were recorded at 37° C. by fluorescence confocal microscopy (Leica SP5) at 1 frame per 2 seconds for FIG. 3a, 1 frame per 15 seconds FIG. 3d and 1 frame per 1 second for FIG. 3g. Pre-processing and analysis of time-lapse calcium recordings were performed in MATLAB. […] Individual neuronal somata were manually selected as ROIs, and the pixel mask in the local area was refined using ICA-based de-mixing of fluorescent transients. ΔF/F0 at time t was calculated with a moving baseline as: […]

iPSCs derived NPCs = assay: Oil toxicity test using iPSCs derived NPCs; format: cell-based; conditions: oil on top of medium of 2D cultured NPCs, 5 days; live (CAM)/dead (PI) staining on day 5
Description: 2D cultured NPCs were added with oil on top of medium and cultured for 5 days. Life (CAM, in green) and Dead (PI, in read) staining were conducted on day 5.
Bioreactors have been used in macro-scale to support biological active environment. However, nanoliter-sized bioreactors would offer the potential to study biological events with much small number of cells, and the potential application in high throughput assays. We firstly optimised the oil surrounding the nano-bioreactors, which plays a large role in the viability of the encapsulated neural tissues. […] The optimised conditions allow the growth of individual low-nanoliter sized neural tissue inside each nano-bioreactor, without interaction with cells in other nano-bioreactors. With differentiation medium, neural process outgrowth and neural migration were observed and assessed in nano-bioreactors. This technique have the potential for a low-cost HTS, as minimal cells and reagents are required. It also offers the potential application to study biological events where a small organised cluster of cells were involved, such as early stage embryogenesis and tumorigenesis.

SMILES: O=c1[nH]cc(F)c(=O)[nH]1 [5-Fluorouracil]
- reported neurotoxicity risk [1]: minor

SMILES: N.N.O=C([O-])C1(C(=O)[O-])CCC1.[Pt+2] [Carboplatin]
- reported neurotoxicity risk [1]: moderate
- neurotoxicity against neural cells in printed neural tissue arrays ([2]; drugs added to culture medium the day after printing, assessed after a further 24 hrs, astrocytes:RFP-NPCs 3:1, n>25, P<0.05): higher toxicity against neural cells compared to 5-Fluorouracil

SMILES: CC(C)CCCC(C)CCCC(C)CCCC(C)CC(=O)OC[C@H](COP(=O)([O-])OCC[N+](C)(C)C)OC(=O)CC(C)CCCC(C)CCCC(C)CCCC(C)C (stereo partly drawn) [DPhPC, 1,2-diphytanoyl-sn-glycero-3-phosphocholine]
- toxicity of DPhPC on hNSCs (neural rosette-like structure formation vs no-lipid control) (RFP-hNSCs): No obvious differences

SMILES: [Cl-].[K+] [KCl]
- calcium response of astrocytes in droplet arrays to KCl stimulation [3]: responsive
- calcium response of printed neural tissues to KCl (printed neural tissues): induced a rapid calcium transient in a cell; also recorded: evoked rapid Ca^2+ transients

SMILES: CC(=O)O[C@H]1C(=O)[C@@]2(C)[C@H]([C@H](OC(=O)c3ccccc3)[C@]3(O)C[C@H](OC(=O)[C@H](O)[C@@H](NC(=O)c4ccccc4)c4ccccc4)C(C)=C1C3(C)C)[C@]1(OC(C)=O)CO[C@@H]1C[C@@H]2O [Taxol]
- reported neurotoxicity risk [1]: high
- neurotoxicity against neural cells in printed neural tissue arrays ([2]; human, 24 h): higher toxicity against neural cells compared to 5-Fluorouracil

SMILES: CCCCCCCC/C=C\CCCCCCCC(=O)OCC(COC(=O)CCCCCCC/C=C\CCCCCCCC)OC(=O)CCCCCCC/C=C\CCCCCCCC [glyceryl trioleate]
- oil toxicity to NPCs (iPSCs derived NPCs): not toxic
